Source: article PMC8198056 (Molecules, 2021)
Numbered stars: 1 amine (or outer) side, 2 acyl side, 3 side chain; on linkers, the order of the positions; unused ones are H or OH. Square brackets hold non-standard residues; d marks the D form. Peptide text beside a SMILES is read from it. X1 = O=C1[C@@H](N[*:1])Cc2ccccc2CN1CCC(=O)[*:2]; Dmt = Cc1cc(O)cc(C)c1C[C@H](N)C(=O)O

Legend:
non-human primates = system: non-human primates; design: method as in PMID 30158150; conditions: cited from earlier work
human NOP receptor = biological target: T1, human NOP receptor (Homo sapiens, UniProt P41146); test: [35S]GTPγS binding assay, CHO-hNOP membranes; assay type: biochemical; conditions: relative to maximum effect of nociceptin (100%)
T1 construct: expressed in transfected cells; host or cells: CHO (CHO-hNOP; gift of Lawrence Toll, SRI International)

mice [1] = test: CFA-induced chronic inflammatory pain, thermal sensitivity (Hargreaves test); assay type: in vivo, mouse
human DOR [2] = biological target: T2, human DOR (Homo sapiens, UniProt P41143); test: Competitive radioligand binding assay ([3H]diprenorphine), CHO-hDOR membranes; conditions: CHO-hOR membranes, mean ± SEM, read-out: Receptor Binding Ki
T2 construct: expressed in transfected cells; host or cells: CHO (CHO-hDOR; gift of Lawrence Toll, SRI International)

[3] = design: method as in PMID 27035422; conditions: cited from earlier work
mice [4] = test: Conditioned place preference (CPP); conditions: 4-day conditioning
rats [5] = system: rats; design: method as in PMID 27035422, PMID 28135212; conditions: i.v. at equianalgesic doses to rats; cited from earlier work
human KOR [6] = biological target: T3, human KOR (Homo sapiens, UniProt P41145); test: [35S]GTPγS binding assay, CHO-hKOR membranes; assay type: biochemical
T3 construct: expressed in transfected cells; host or cells: CHO (CHO-hKOR; gift of Lawrence Toll, SRI International)

human KOR [7] = biological target: T3, human KOR; test: Competitive radioligand binding assay ([3H]U69,593), CHO-hKOR membranes; conditions: [3H]U69,593, CHO-hOR membranes, mean ± SEM, read-out: Receptor Binding Ki
human DOR [8] = biological target: T2, human DOR; test: [35S]GTPγS binding assay, CHO-hDOR membranes; assay type: biochemical
mice [9] = test: CFA-induced chronic inflammatory pain, mechanical sensitivity (von Frey test); assay type: in vivo, mouse
mice [10] = test: Open-field test (spontaneous locomotor activity)
rats [11] = conditions: acute i.t. administration in rats; cited from earlier work
human MOR [12] = biological target: T4, human MOR (Homo sapiens, UniProt P35372); test: [35S]GTPγS binding assay, CHO-hMOR membranes; assay type: biochemical
T4 construct: expressed in transfected cells; host or cells: CHO (CHO-hMOR; gift of Lawrence Toll, SRI International)

mice [13] = test: Formalin test (formalin-induced acute inflammatory pain); conditions: for %Antinociceptive effect Phase I: Phase I 0-5 min; for %Antinociceptive effect Phase II: Phase II 15-60 min
human MOR [14] = biological target: T4, human MOR; test: Competitive radioligand binding assay ([3H]DAMGO), CHO-hMOR membranes; conditions: CHO-hOR membranes, mean ± SEM, read-out: Receptor Binding Ki
mice [15] = system: mice; design: method as in PMID 17132815, PMID 23652222; conditions: cited from earlier work
mice [16] = test: Naloxone-precipitated withdrawal syndrome; conditions: 15.5 µmol/kg s.c. daily 5 days; naloxone 1 mg/kg s.c.

CC(C)C1CCC(N2CCC3(CC2)C(=O)N(CCNS(N)(=O)=O)Cc2ccccc23)CC1 (stereo not drawn) [AT-121]
Antinociception and side effects (non-human primates): produced antinociception with reduced respiratory depression and physical dependence

CC[C@H](C)[C@H](NC(=O)[C@H](CCCNC(=N)N)NC(=O)[C@H](Cc1ccc(O)cc1)NC(=O)[C@H](Cc1ccc(O)cc1)NC(=O)[C@H](CCCNC(=N)N)NC(=O)CCN1Cc2ccccc2C[C@H](NC(=O)[C@@H](CCCNC(=N)N)NC(=O)[C@@H](N)Cc2c(C)cc(O)cc2C)C1=O)C(=O)N[C@@H](CCCCN)C(N)=O [KGNOP1, H-Dmt-D-Arg-Aba-β-Ala-Arg-Tyr-Tyr-Arg-Ile-Lys-NH2] (H-[Dmt][dR][X1]RYYRIK-NH2)
Emax (human NOP receptor): 99 ± 8% | Time span of significant inhibition of thermal hyperalgesia vs saline (mice [1]; 0.49 µmol/kg s.c.): 30 to 240 min | % reversal of thermal sensitivity (mice [1]; 0.49 µmol/kg s.c., 30 min): 23.5% | % reversal of thermal sensitivity (mice [1]; 0.49 µmol/kg s.c., 1 h): 38.1% | % reversal of thermal sensitivity (mice [1]; 0.49 µmol/kg s.c., 2 h): 59.8% | % reversal of thermal sensitivity (mice [1]; 0.49 µmol/kg s.c., 3 h): 40.2% | % reversal of thermal sensitivity (mice [1]; 0.49 µmol/kg s.c., 4 h): 25.4% | % reversal of thermal sensitivity (mice [1]; 0.49 µmol/kg s.c., 5 h): 15.7% | % reversal of thermal sensitivity (mice [1]; 0.49 µmol/kg s.c., 6 h): 9.3% | % reversal of thermal sensitivity (mice [1]; 0.49 µmol/kg s.c., 7 h): -1.46% | % reversal of thermal sensitivity (mice [1]; 0.49 µmol/kg s.c., 8 h): 6.12% | % reversal of thermal sensitivity (mice [1]; 0.49 µmol/kg s.c., 24 h): -3.79% | Time of maximum efficacy, Hargreaves test (mice [1]; 1.22 µmol/kg s.c.): two hours | Time span of significant inhibition of thermal hyperalgesia vs saline (mice [1]; 1.22 µmol/kg s.c.): 30 to 360 min | % reversal of thermal sensitivity (mice [1]; 1.22 µmol/kg s.c., 30 min): 31.9% | % reversal of thermal sensitivity (mice [1]; 1.22 µmol/kg s.c., 1 h): 54.4% | % reversal of thermal sensitivity (mice [1]; 1.22 µmol/kg s.c., 2 h): 98.6% | % reversal of thermal sensitivity (mice [1]; 1.22 µmol/kg s.c., 3 h): 78.6% | % reversal of thermal sensitivity (mice [1]; 1.22 µmol/kg s.c., 4 h): 58.2% | % reversal of thermal sensitivity (mice [1]; 1.22 µmol/kg s.c., 5 h): 26.0% | % reversal of thermal sensitivity (mice [1]; 1.22 µmol/kg s.c., 6 h): 26.7% | % reversal of thermal sensitivity (mice [1]; 1.22 µmol/kg s.c., 7 h): 10.2% | % reversal of thermal sensitivity (mice [1]; 1.22 µmol/kg s.c., 8 h): 9.15% | % reversal of thermal sensitivity (mice [1]; 1.22 µmol/kg s.c., 24 h): 6.72% | Duration of reversal of CFA-induced thermal hyperalgesia (mice [1]; s.c.): up to 6 h | Ki (human DOR [2]): 12.2 ± 3.5 nM | Half-life time t1/2 in human plasma [3]: 9.77 h | CPP response vs saline (mice [4]; 1.22 and 2.44 µmol/kg s.c.): no significant preference at any tested dose | Respiratory depression in contrast to morphine (rats [5]): significantly less respiratory depression | EC50 (human KOR [6]): 112 ± 32 nM | Emax (human KOR [6]; relative to maximum effect of U69,593 (100%)): 37 ± 3% | Ki (human KOR [7]): 13.4 ± 4.3 nM | EC50 (human DOR [8]): 51.6 ± 17.8 nM | Emax (human DOR [8]; relative to maximum effect of DPDPE (100%)): 106 ± 3% | Time points of significant effect on mechanical stimulation vs saline (mice [9]; 1.22 µmol/kg s.c.): one hour | % reversal of mechanical sensitivity (mice [9]; 1.22 µmol/kg s.c., 30 min): -6.71% | % reversal of mechanical sensitivity (mice [9]; 1.22 µmol/kg s.c., 1 h): 65.4% | % reversal of mechanical sensitivity (mice [9]; 1.22 µmol/kg s.c., 2 h): 19.1% | % reversal of mechanical sensitivity (mice [9]; 1.22 µmol/kg s.c., 3 h): -8.73% | % reversal of mechanical sensitivity (mice [9]; 1.22 µmol/kg s.c., 4 h): 21.1% | % reversal of mechanical sensitivity (mice [9]; 1.22 µmol/kg s.c., 5 h): -0.50% | % reversal of mechanical sensitivity (mice [9]; 1.22 µmol/kg s.c., 6 h): -12.9% | % reversal of mechanical sensitivity (mice [9]; 1.22 µmol/kg s.c., 7 h): -8.30% | % reversal of mechanical sensitivity (mice [9]; 1.22 µmol/kg s.c., 8 h): -2.42% | % reversal of mechanical sensitivity (mice [9]; 1.22 µmol/kg s.c., 24 h): -8.66% | Spontaneous locomotor activity (distance traveled) vs saline (mice [10]; 1.22 µmol/kg s.c. daily for 4 days): no significant alteration in locomotion | Spontaneous locomotor activity (distance traveled) vs saline (mice [10]; 2.44 µmol/kg s.c., only at day 1): significant decrease in locomotion | Effect on evoked locomotor activity in the rotarod test (rats [11]): lack of KGNOP1′s effect on the evoked locomotor activity | EC50 (human MOR [12]): 2.5 ± 0.81 nM | Emax (human MOR [12]; relative to maximum effect of DAMGO (100%)): 92 ± 4% | %Antinociceptive effect Phase I (mice [13]; 0.12 µmol/kg s.c.): 33.9 ± 3.8% | %Antinociceptive effect Phase II (mice [13]; 0.12 µmol/kg s.c.): 2.3 ± 11.1% | %Antinociceptive effect Phase I (mice [13]; 0.49 µmol/kg s.c.): 33.7 ± 9.3% | %Antinociceptive effect Phase II (mice [13]; 0.49 µmol/kg s.c.): 51.8 ± 9.7% | Pain response counted between 15 and 60 min (mice [13]; 1.22 µmol/kg s.c.): almost complete inhibition of the pain response | %Antinociceptive effect Phase I (mice [13]; 1.22 µmol/kg s.c.): 55.6 ± 7.3% | %Antinociceptive effect Phase II (mice [13]; 1.22 µmol/kg s.c.): 71.4 ± 6.8% | Antinociceptive effect after pre-treatment with SB-612111 (mice [13]; KGNOP1 1.22 µmol/kg s.c., SB-612111 6.6 µmol/kg s.c., -30 min, Phase I and II): significantly reversed the antinociceptive response | Antinociceptive effect after pre-treatment with naltrexone (mice [13]; KGNOP1 1.22 µmol/kg s.c., naltrexone 2.6 µmol/kg s.c., -15 min, Phase I and II): significant antagonism of the antinociceptive effect | Antinociceptive ED50 (95% CL), Phase I (mice [13]; s.c., acute nociceptive Phase I (0-5 min)): 1.17 µmol/kg | Antinociceptive ED50 (95% CL), Phase II (mice [13]; s.c., inflammatory Phase II (15-60 min)): 0.55 µmol/kg | Ki (human MOR [14]): 0.42 ± 0.08 nM

O=C1Cc2ccccc2N1C1CCN(C2C3CCCC2CCC3)CC1 (stereo not drawn) [SR16435, 1-(1-(bicyclo [3.3. 1]nonan-9-yl)piperidin-4-yl) indolin-2-one]
CPP in mice (mice [15]): induced CPP in mice to the same extent as morphine

CN1CC[C@]23c4c5ccc(O)c4O[C@H]2[C@@H](O)C=C[C@H]3[C@H]1C5 [morphine, reference compound]
Time of peak antihyperalgesic effect (mice [1]; 15.5 µmol/kg s.c.): 30 min | Time points of significant reduction in thermal hyperalgesia vs saline (mice [1]; 15.5 µmol/kg s.c.): 30 min and one hour | % reversal of thermal sensitivity (mice [1]; 15.5 µmol/kg s.c., 30 min): 68.6% | % reversal of thermal sensitivity (mice [1]; 15.5 µmol/kg s.c., 1 h): 36.1% | % reversal of thermal sensitivity (mice [1]; 15.5 µmol/kg s.c., 2 h): 19.6% | % reversal of thermal sensitivity (mice [1]; 15.5 µmol/kg s.c., 3 h): 13.8% | % reversal of thermal sensitivity (mice [1]; 15.5 µmol/kg s.c., 4 h): -1.96% | % reversal of thermal sensitivity (mice [1]; 15.5 µmol/kg s.c., 5 h): 0.43% | % reversal of thermal sensitivity (mice [1]; 15.5 µmol/kg s.c., 6 h): -0.40% | % reversal of thermal sensitivity (mice [1]; 15.5 µmol/kg s.c., 24 h): 0.00% | Global withdrawal score vs saline (mice [16]): significantly increased withdrawal | CPP response vs saline (mice [4]; 15.5 µmol/kg s.c.): significant CPP response | Time points of significant effect on mechanical stimulation vs saline (mice [9]; 15.5 µmol/kg s.c.): 30 min and one hour | % reversal of mechanical sensitivity (mice [9]; 15.5 µmol/kg s.c., 30 min): 63.4% | % reversal of mechanical sensitivity (mice [9]; 15.5 µmol/kg s.c., 1 h): 50.6% | % reversal of mechanical sensitivity (mice [9]; 15.5 µmol/kg s.c., 2 h): 18.9% | % reversal of mechanical sensitivity (mice [9]; 15.5 µmol/kg s.c., 3 h): 6.62% | % reversal of mechanical sensitivity (mice [9]; 15.5 µmol/kg s.c., 4 h): 1.57% | % reversal of mechanical sensitivity (mice [9]; 15.5 µmol/kg s.c., 5 h): 11.7% | % reversal of mechanical sensitivity (mice [9]; 15.5 µmol/kg s.c., 6 h): -2.29% | % reversal of mechanical sensitivity (mice [9]; 15.5 µmol/kg s.c., 24 h): 1.68% | Spontaneous locomotor activity (distance traveled) vs saline (mice [10]; 15.5 µmol/kg s.c. daily, day 1 to day 4): significant increase in the distance traveled | %Antinociceptive effect Phase I (mice [13]; 3.11 µmol/kg s.c.): 19.4 ± 6.7% | %Antinociceptive effect Phase II (mice [13]; 3.11 µmol/kg s.c.): 24.8 ± 11.6% | %Antinociceptive effect Phase I (mice [13]; 7.77 µmol/kg s.c.): 32.6 ± 5.7% | %Antinociceptive effect Phase II (mice [13]; 7.77 µmol/kg s.c.): 57.5 ± 8.3% | Pain response counted between 15 and 60 min (mice [13]; 15.5 µmol/kg s.c.): almost complete inhibition of the pain response | %Antinociceptive effect Phase I (mice [13]; 15.5 µmol/kg s.c.): 38.4 ± 10.9% | %Antinociceptive effect Phase II (mice [13]; 15.5 µmol/kg s.c.): 79.1 ± 7.5%
